The nature of one data set: in vivo. Particulars: rat, inhaled or intranasal, 6 mg/kg.
For data set [1] the following is noted: rat, in vivo.

Structures are written as SMILES.

Take `CC[C@H](C)[C@H](NC(=O)[C@H](C)NC(=O)[C@H](CC(N)=O)NC(=O)CNC(=O)[C@H](CC(C)C)NC(=O)[C@H](CC(N)=O)NC(=O)[C@@H](NC(=O)CNC(=O)[C@@H](NC(=O)[C@H](CC(=O)O)NC(=O)[C@H](CC(C)C)NC(=O)[C@H](CCCNC(=N)N)NC(=O)[C@H](CCC(=O)O)NC(=O)[C@H](CC(C)C)NC(=O)[C@H](CO)NC(=O)[C@@H](NC(=O)[C@@H]1CCCN1C(=O)[C@@H]1CCCN1C(C)=O)[C@@H](C)CC)C(C)C)[C@@H](C)O)C(=O)N[C@@H](C)C(=O)N[C@@H](CCCCN)C(=O)N[C@@H](CC(C)C)C(=O)N[C@@H](CCC(=O)O)C(=O)N[C@@H](CC(=O)O)C(=O)N[C@@H](C)C(=O)N[C@@H](CCCCN)C(=O)N[C@@H](CCC(=O)O)C(=O)N[C@@H](CC(C)C)C(=O)N[C@@H](CC(C)C)C(=O)N[C@@H](CCC(=O)O)C(=O)N[C@@H](CO)C(=O)N[C@@H](CO)C(=O)N[C@@H](CC(=O)O)C(=O)N[C@@H](CCC(N)=O)C(=O)N[C@H](C(=O)N[C@@H](CC(C)C)C(=O)N[C@@H](CCCNC(=N)N)C(=O)NCC(=O)N[C@@H](CO)C(=O)NCC(=O)N[C@@H](CO)C(=O)NCC(=O)N[C@@H](CSC1=CC(=O)N(CCCC(=O)NCCOCCOCCOCCOCCC(=O)NCCN(CCNC(=O)CCOCCOCCOCCOCCNC(=O)CCCN2C(=O)C=C(SC[C@H](NC(=O)CNC(=O)[C@H](CO)NC(=O)CNC(=O)[C@H](CO)NC(=O)CNC(=O)[C@H](CCCNC(=N)N)NC(=O)[C@H](CC(C)C)NC(=O)[C@@H](NC(=O)[C@H](CCC(N)=O)NC(=O)[C@H](CC(=O)O)NC(=O)[C@H](CO)NC(=O)[C@H](CO)NC(=O)[C@H](CCC(=O)O)NC(=O)[C@H](CC(C)C)NC(=O)[C@H](CC(C)C)NC(=O)[C@H](CCC(=O)O)NC(=O)[C@H](CCCCN)NC(=O)[C@H](C)NC(=O)[C@H](CC(=O)O)NC(=O)[C@H](CCC(=O)O)NC(=O)[C@H](CC(C)C)NC(=O)[C@H](CCCCN)NC(=O)[C@H](C)NC(=O)[C@@H](NC(=O)[C@H](C)NC(=O)[C@H](CC(N)=O)NC(=O)CNC(=O)[C@H](CC(C)C)NC(=O)[C@H](CC(N)=O)NC(=O)[C@@H](NC(=O)CNC(=O)[C@@H](NC(=O)[C@H](CC(=O)O)NC(=O)[C@H](CC(C)C)NC(=O)[C@H](CCCNC(=N)N)NC(=O)[C@H](CCC(=O)O)NC(=O)[C@H](CC(C)C)NC(=O)[C@H](CO)NC(=O)[C@@H](NC(=O)[C@@H]3CCCN3C(=O)[C@@H]3CCCN3C(C)=O)[C@@H](C)CC)C(C)C)[C@@H](C)O)[C@@H](C)CC)[C@@H](C)CC)C(N)=O)C2=O)CCOC2CCC3(C)C(=CCC4C3CCC3(C)C(C(C)CCCC(C)C)CCC43)C2)C1=O)C(N)=O)[C@@H](C)CC` (stereo partly drawn) [MV HRC4]: the level at time molar at 8 h in the data set “in vivo” was approximately 400 nM. In data set [1], the “presence in the brain / CNS localization” value is “a small fraction of the administered peptides was present” and the “presence in the serum” value is reported as “a small fraction of the administered peptides was present”.

With `CC[C@H](C)[C@H](NC(=O)[C@H](C)NC(=O)[C@H](CC(N)=O)NC(=O)CNC(=O)[C@H](CC(C)C)NC(=O)[C@H](CC(N)=O)NC(=O)[C@@H](NC(=O)CNC(=O)[C@@H](NC(=O)[C@H](CC(=O)O)NC(=O)[C@H](CC(C)C)NC(=O)[C@H](CCCNC(=N)N)NC(=O)[C@H](CCC(=O)O)NC(=O)[C@H](CC(C)C)NC(=O)[C@H](CO)NC(=O)[C@@H](NC(=O)[C@@H]1CCCN1C(=O)[C@@H]1CCCN1C(C)=O)[C@@H](C)CC)C(C)C)[C@@H](C)O)C(=O)N[C@@H](C)C(=O)N[C@@H](CCCCN)C(=O)N[C@@H](CC(C)C)C(=O)N[C@@H](CCC(=O)O)C(=O)N[C@@H](CC(=O)O)C(=O)N[C@@H](C)C(=O)N[C@@H](CCCCN)C(=O)N[C@@H](CCC(=O)O)C(=O)N[C@@H](CC(C)C)C(=O)N[C@@H](CC(C)C)C(=O)N[C@@H](CCC(=O)O)C(=O)N[C@@H](CO)C(=O)N[C@@H](CO)C(=O)N[C@@H](CC(=O)O)C(=O)N[C@@H](CCC(N)=O)C(=O)N[C@H](C(=O)N[C@@H](CC(C)C)C(=O)N[C@@H](CCCNC(=N)N)C(=O)NCC(=O)N[C@@H](CO)C(=O)NCC(=O)N[C@@H](CO)C(=O)NCC(=O)N[C@@H](CSC1=CC(=O)N(CCCC(=O)NCCOCCOCCOCCOCCC(=O)NCCN(CCNC(=O)CCOCCOCCOCCOCCNC(=O)CCCN2C(=O)C=C(SC[C@H](NC(=O)CNC(=O)[C@H](CO)NC(=O)CNC(=O)[C@H](CO)NC(=O)CNC(=O)[C@H](CCCNC(=N)N)NC(=O)[C@H](CC(C)C)NC(=O)[C@@H](NC(=O)[C@H](CCC(N)=O)NC(=O)[C@H](CC(=O)O)NC(=O)[C@H](CO)NC(=O)[C@H](CO)NC(=O)[C@H](CCC(=O)O)NC(=O)[C@H](CC(C)C)NC(=O)[C@H](CC(C)C)NC(=O)[C@H](CCC(=O)O)NC(=O)[C@H](CCCCN)NC(=O)[C@H](C)NC(=O)[C@H](CC(=O)O)NC(=O)[C@H](CCC(=O)O)NC(=O)[C@H](CC(C)C)NC(=O)[C@H](CCCCN)NC(=O)[C@H](C)NC(=O)[C@@H](NC(=O)[C@H](C)NC(=O)[C@H](CC(N)=O)NC(=O)CNC(=O)[C@H](CC(C)C)NC(=O)[C@H](CC(N)=O)NC(=O)[C@@H](NC(=O)CNC(=O)[C@@H](NC(=O)[C@H](CC(=O)O)NC(=O)[C@H](CC(C)C)NC(=O)[C@H](CCCNC(=N)N)NC(=O)[C@H](CCC(=O)O)NC(=O)[C@H](CC(C)C)NC(=O)[C@H](CO)NC(=O)[C@@H](NC(=O)[C@@H]3CCCN3C(=O)[C@@H]3CCCN3C(C)=O)[C@@H](C)CC)C(C)C)[C@@H](C)O)[C@@H](C)CC)[C@@H](C)CC)C(N)=O)C2=O)CCOc2c(C)c(C)c3c(c2C)CC[C@](C)(CCC[C@@H](C)CCC[C@@H](C)CCCC(C)C)O3)C1=O)C(N)=O)[C@@H](C)CC` [HRC4-tocopherol], the level at time molar at 8 h in “in vivo” was approximately 2000 nM. Also, in data set [1], the “presence in the brain / CNS localization” value is recorded as “no CNS localization” and the “presence in the serum” value was “minimal presence in the serum”.

The values are drawn from patent US10172961B2 (priority 2014, dated 2019).
